Earlier results in patent US20220386610A1, “FUNGICIDAL COMBINATIONS” (UPL Corporation Limited, priority 2019, published 2022).

Tested on: soybean rust
Conditions: for control: 2012/13 season

SMILES	control	efficiency (reduced level) (after ten seasons)	efficiency (starting level) (before the reduction over ten seasons)
CC(C1CC1)C(O)(Cn1cncn1)c1ccc(Cl)cc1 (stereo not shown) [cyproconazole]	38%		
CC(C)(C)C(O)(CCc1ccc(Cl)cc1)Cn1cncn1 (stereo not shown) [tebuconazole]	42%	24%	90%
